Values of other authors in US20170252421A1 (priority 2014, published 2017).

For `CN(C)C(=N)N=C(N)N` [metformin, Metformin], the “patients discontinuing the therapy due to the side effects” value (oral metformin) is given as “up to 5%”, the “patients experiencing gastrointestinal side effects” value (oral metformin) is given as “Up to 20%” and the “patients developing vitamin B12 deficiency” value (patients taking metformin) is given as 77%. The “reduction of morbidity and mortality rates” value (treating insulin resistance) was “about 30%”.
